Legend:
[1] = rabbit
[2] = Drug release in vitro, dynamic dialysis; format: physicochemical; details: for Releasing (%): physiological saline
Protocol: Drug releases in vitro. According to dynamic dialysis, taking physiological saline as medium, 4 ml of the solution would be taken at certain time, and the same volume of the medium would be added in. The absorbency was measured to get the solving efficiency according to the standard curve formula. At the same time, the drug releasing experiment of adriamycin standard substance was done in order to observe the control release of the dialysis bag.

HepG2 cell = test: Transwell invasion in vitro; format: cell-based
Source text: The tumor cell's mobility and the invasion are close to each other. The tumor cell has the ability of amoeba type's movement, and it was confirmed by many people. Simultaneously, many overseas scholars reported that there is a direct ratio relation between the mobility and the invasion ability of the cancer cell. […] There is significant difference between any two groups. […] HSA-magnetic-adriamycin-nanoparticles group is different from galactosyl-HSA-adriamycin-nanoparticles group in it.

liver cancer = test: Animal test of liver cancer therapy, hepatic artery injection; format: in vivo
Source text: The result could be found in animal test: the group having NS hepatic artery injection lived 12.7 days on average; the group having lib-adriamycin hepatic artery injection lived 18.7 days on average; HSA-NP hepatic artery injection lived 20.7 days on average; the group having Gal-HAS-NP treatment lived 39.4 days on average.
Meanwhile, the aspiration of magnetic nanoparicles produced a longer functional diameter, which caused embolism in tumor blood vessels and lack of blood and oxygen in tumor in order to improve the sensitivity and effect of chemotherapeutics. Without adding magnetic field, the distribution rate of ADM-GHMN in tumorous and normal livers was 2.74, which also had some anti-tumor effects.

hepatocelular cell = test: Apoptosis, quadrilateral zone in drug toxicity experiment; format: cell-based

With `COc1cccc2c1C(=O)c1c(O)c3c(c(O)c1C2=O)C[C@@](O)(C(=O)CO)C[C@@H]3O[C@H]1C[C@H](N)[C@H](O)[C@H](C)O1` [adriamycin] the C l [1] was 0.4233 ± 0.3223 mg/m/(mg/l), the T1/2β ([1]; elimination phase) was 883.2164 ± 2198.4914 m and the A ([1]; in vivo) was 0.1362 ± 0.0185 mg · l − 1. The “AUC0→∞” value ([1]; in vivo) was 14.8163 ± 24.789 m · mg/l, the B ([1]; in vivo) was 0.0109 ± 0.0028 mg · l − 1 and the Gamma ([1]; in vivo) was 0.5463 ± 0.1663 m − 1. For the same molecule, the T1/2α ([1]; in vivo) was 13.8169 ± 3.5845 m, the V c ([1]; in vivo) was 18.6816 ± 2.3663 (mg)/(mg/l) and the α ([1]; in vivo) was 0.0523 ± 0.0161 m − 1. For the same molecule, the “Releasing (%)” value ([2]; 0.5 h) was 78.21%, the “Releasing (%)” value ([2]; 1 h) was 91.34% and the “Releasing (%)” value ([2]; 2 h) was 100%. For the same molecule, the “release / releasing efficiency” value ([2]; time not stated (Tab 6)) was 91.34%, the “inhibition of invasive power” value (HepG2 cell) was “can inhibit invasive power of the HepG2 cell” and the average survival (liver cancer; hepatic artery injection) was 18.7 days. For the same molecule, the “tumor necrosis extent in pathological section” value (liver cancer; in vivo) was “no badly necrosis but most light or medium leveled necrosis” and the “characteristic quadrilateral zone present” value (hepatocelular cell) was “characteristic quadrilateral zone”.

Source: patent US20100029546A1, “preparation method of galactosyl-has magnetic nanoparticles containing adriamycin” (priority 2004, published 2010)
